6 compounds from US8367737B2, “Method of using biothionol and biothionol-like compounds as anti-angiogenic agents” (Southern Research Institute, priority 2007, dated 2013) can be followed below.

Test [1] relates to Endothelial cells (HUVEC). Briefly: Endothelial cell migration assay. In kind it is cell-based. The note with it: Homo sapiens, read-out: Inhibition in Endothlial migration. The procedure: Endothelial cell migration is a key step of the angiogenesis process, which is crucial for on-site recruitment of blood vessel formation. The trans-well filter/inserts chamber of Biocoat Endothelial Cell Migration Angiogenesis System (BD Biosciences) is used for endothelial cell migration assay, which is a 24-Transwell chamber plate containing 3-μm pore size inserts coated with human fibronectin. The inserts are incubated at 37° C. with 0.1% bovine serum albumin containing endothelial cell basal medium for 1 hour. Endothelial cells (HUVEC) are starved with 0.1% bovine serum albumin in endothelial cell basal medium for 4 to 5 hours before the cell harvest and then seeded (1×10^5 per well) in upper chambers of the Transwell plate with various treatments in 100 ul of 0.1% bovine serum albumin in endothelial cell basal medium. The full growth medium that contains various chemoattractants is added in the lower chambers. The cells are allowed to migrate for 22±1 hours at 37° C. Unmigrated cells at the inside of the inserts are carefully removed with a Q-tip. Migrated cells at the lower part of the Transwell inserts are then fixed with 4% paraformaldehyde, stained with Hoechst 33342, and photographed under a fluorescent microscope. Three microscopic view fields of each filter/insert are analyzed for the number of migrated cells. Triplicate filter/insert chamber cultures are carried for each test concentration and control.

For test [2], the system named is Chicken embryo chorioallantoic membrane. Briefly: Chick chorioallantoic membrane (CAM) assay. In kind it is in vivo. Particulars: 10 μg; vascular density index. The text has this:
Chicken embryo chorioallantoic membrane provides an ideal in vivo model for the physiologic process of angiogenesis. Angiogenic modulators applied on methylcellulose discs placed on top of chicken embryo chorioallantoic membrane are able to alter the development of new blood vasculature. See Staton et al, Current Methods for Assaying Angiogenesis in vitro and in vivo, INT. J. EXP. PATHOL., 85:233-48 (2004), which is incorporated herein by reference in its entirety. The angiogenesis chorioallantoic membrane assay is used for ex vivo evaluation of the anti-angiogenic potential of synthetic compounds. Fertilized chicken eggs are incubated at 37.5° C. in a humidified egg incubator with forced air circulation. On embryo Day 3, eggs are cracked open and embryos are transferred into […] Petri plates to continue their development in a cell culture incubator at 37.5° C. Pre-made methylcellulose discs in about 2 mm in diameter are gently implanted on top of embryo chorioallantoic membrane on embryonic Day 5 and then testing compound in solution or control vehicle is applied on top of methylcellulose disc. The embryos are incubated for two more days in the cell culture incubator. The chorioallantoic membranes are examined and quantitatively analyzed for new blood vessel formation at embryonic Day 7. The treatment effects on angiogenesis are evaluated by determining vascular density index (VDI) of each CAM with viable chicken embryos. The VDI represents the number of intersections made by blood vessels with three equidistant concentric circles on the area covered by methylcellulose discs by using Image Pro Plus software. The data are expressed as average VDI based on the quantitative analysis for each treatment group (N≧5) with stander deviation.

The subject of test [3] is Endothelial cells (HUVEC). Description: Endothelial tube formation assay. In kind it is cell-based. Particulars: Homo sapiens, read-out: Inhibition in Endothlia Tube-Formation. The procedure:
Human endothelial cells are cultured in vitro on extracellular matrix, which stimulates the attachment and differentiation of endothelial cells into tubules. The endothelial tube formation assay is based on this phenomenon. Endothelial cells (HUVEC) are seeded (1.5×10^4 per well) in a 96-well plates coated with extracellular matrix and treated with the target compounds at different concentrations with the full growth medium in triplicate. The cells are allowed to form endothelial tubes at 37° C. for about 18 hours and photographed under an inverted light microscope. The tubule lengths are quantified using image analysis software, Image-Pro Plus (Media Cybernetics, Inc., Silver Spring, Md.). Data are expressed as average tube lengths of three view fields for each well and triplicate wells for each treatment condition. IC50 values are calculated based on the dose curve.

The next test relates to venous endothelia HUVEC. Briefly: Cell proliferation assay (CellTiter-Glo), venous endothelia. Particulars: Homo sapiens, 72 hours of treatment, growth medium. In kind it is cell-based. The procedure: (§1) Human primary cell lines, arterial endothelia, such as HAEC and HPAEC, venous endothelia HUVEC (from Cambrex BioScience Rockland Inc.), and lung fibroblasts LL47 (from the American Type Culture Collection) are cultured by following the instruction and used to evaluate the target compounds for their differential activity against human endothelia verses fibroblasts by CellTiter-Glo Luminescent Cell viability Assay. This assay, generating luminescent signals, is based on quantification of ATP levels in cell cultures. Amount of ATP produced in cell culture reflects the number of viable cells. […] Cells are seeded in 96-well plates with their growth medium, about 5×10^3 cell per well. After 24 hours, various doses of the target compounds are added to the cultures, having four replicates for each dose. After 72 hours of treatment, CellTiter-Glo reagent is added to the cultures following the manufacturer's instruction and luminescence is measured. The control groups are given DMSO vehicle only. IC50s of target compounds for endothelia and fibroblasts proliferation in their growth medium are determined based on the dose response curve and plotted against the range of concentrations.
On the technique in general: Cellular ATP, detected with luciferase, serves as a proxy for viable cell number.

In the next test the test system is lung fibroblasts LL47. Description: Cell proliferation assay (CellTiter-Glo), fibroblasts. In kind it is cell-based. The note with it: Homo sapiens, Fibroblast; 72 hours of treatment, growth medium. The procedure:
as §1

In test [4] the test system is arterial endothelia, such as HAEC and HPAEC. Description: Cell proliferation assay (CellTiter-Glo), arterial endothelia. In kind it is cell-based. Particulars: Homo sapiens; 72 hours of treatment, growth medium. The procedure:
as §1

Where a name gives a salt, the structure may show the parent alone.

Consider `CCCCc1oc2ccccc2c1C(=O)c1cc(I)c(OCCN(CC)CC)c(I)c1` [Amiodarone hydrochloride], for which, in test [1], the inhibition at 2 µM was determined as 36% and the inhibition at 8 µM stood at 38%. For the same compound, in test [2], the “Inhibition in CAM Assay” value amounted to 27%. Besides, in test [3], the inhibition at 2 µM was 33% and the inhibition at 8 µM was found to be 33%.

Consider `Oc1c(Cl)cc(Cl)cc1Sc1cc(Cl)cc(Cl)c1O` [Bithionol], for which the values for the IC50 (in the test on venous endothelia HUVEC; in the test with lung fibroblasts LL47; in test [4]) were 6 µM, 10.5 µM and 2 µM, respectively. Besides, the inhibition at 2 µM was determined as 5% in test [1] and 19% in test [3]. Moreover, the inhibition at 8 µM in test [1] stood at 100%; in test [3], 38%. In addition, the “Inhibition in CAM Assay” value in test [2] was determined as 30%.

With `CN(C)CCCN1c2ccccc2CCc2ccc(Cl)cc21` [Clomipramine hydrochloride], in test [1], the inhibition at 2 µM is 58% and the inhibition at 8 µM came to 63%. The “Inhibition in CAM Assay” value in test [2] was 19%. For the same compound, in test [3], the inhibition at 2 µM is 12% and the inhibition at 8 µM was found to be 26%.

Regarding `OCCN1CCN(CCCN2c3ccccc3Sc3ccc(Cl)cc32)CC1` [Perphenazine], the 50% inhibitory concentration (IC50) – broadly, the concentration needed to halve the response being measured – is 11.1 µM with venous endothelia HUVEC, 10.8 µM with lung fibroblasts LL47 and 4.2 µM in test [4]. The inhibition at 2 µM came to 43% in test [1] and 7% in test [3]. The inhibition at 8 µM in test [1] is 46%; in test [3], 22%.

As for `Cc1nc2sccn2c(=O)c1CCN1CCC(=C(c2ccc(F)cc2)c2ccc(F)cc2)CC1` [Ritanserin], the IC50 in the test with venous endothelia HUVEC was 10.5 µM; with lung fibroblasts LL47, above 50 µM; in test [4], 11 µM. Further, the inhibition at 2 µM in test [1] was 55%; in test [3], 11%. In addition, the inhibition at 8 µM in test [1] was 65%; in test [3], 33%. Also, the “Inhibition in CAM Assay” value in test [2] was 21%.

On to `CC(C)(C)c1ccc(C(O)CCCN2CCC(C(O)(c3ccccc3)c3ccccc3)CC2)cc1` (centres unmarked) [Terfenadine], for which the IC50 with venous endothelia HUVEC turned out to be 5.5 µM; in the test on lung fibroblasts LL47, 7 µM; in test [4], 3 µM. In addition, the inhibition at 2 µM in test [1] came to 34%; in test [3] it was 20%. Further, the inhibition at 8 µM in test [1] worked out at 100%; in test [3] it was 43%. The “Inhibition in CAM Assay” value in test [2] stood at 28%.
